{
  "source": "patent US10829458B2",
  "about": "(Araxes Pharma LLC, priority 2015, dated 2020)",
  "molecular_target": "T1, KRAS G12C 1-169, his-tagged protein, GDP-loaded (Homo sapiens, UniProt P01116, G12C)",
  "T1 construct": "KRAS G12C 1-169, his-tagged protein, GDP-loaded",
  "assay": "Biochemical assay: covalent modification of KRAS G12C measured by mass spectrometry (RapidFire/TOF or Q-Exactive)",
  "settings": "covalent binding to KRAS G12C",
  "in_short": "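GDP-loaded his-tagged KRAS G12C 1-169 at 2 μM in 20 mM Hepes, 150 mM NaCl, 1 mM MgCl2 incubated at room temperature with compound (10, 30 or 100 μM final, 2% DMSO) for 30 min, 2 h or 24 h, then quenched with formic acid. Intact-protein LC-MS (RapidFire/TOF or Q-Exactive) with deconvolution quantified modified versus unmodified protein.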",
  "data": [
    {"compound": "C=CC(=O)N1CCN(c2nc(OCCc3ncccn3)nc3c(F)c(-c4c(C)ccc5[nH]ncc45)c(Cl)cc23)CC1", "note": "[Example I-139, 1-(4-(6-chloro-8-fluoro-7-(5-methyl-1H-indazol-4-yl)-2-(2-(pyrimidin-2-yl)ethoxy)quinazolin-4-yl)piperazin-1-yl) prop-2-en-1-one]", "values": [
      {"measurement": "Binding %", "setting": "compounds of structure (I)", "result": "+++ (+++ indicates binding activity greater than 90%)"}
    ]},
    {"compound": "C=CC(=O)N1CCN(c2nc(NC3CCN(C4CC4)CC3)nc3c(F)c(-c4c(C)ccc5[nH]ncc45)c(Cl)cc23)CC1", "note": "(atropisomer, axis not shown) [Example I-82, (R)-1-(4-(6-chloro-2-(1-cyclopropyl-piperidin-4-ylamino)-8-fluoro-7-(5-methyl-1H-indazol-4-yl)quinazolin-4-yl)piperazin-1-yl)prop-2-en-1-one]", "values": [
      {"measurement": "Binding %", "setting": "compounds of structure (I)", "result": "+++ (+++ indicates binding activity greater than 90%)"}
    ]},
    {"compound": "C=CC(=O)N1CCN(c2nc(NCCc3ccccn3)nc3c(F)c(-c4c(O)cccc4F)c(Cl)cc23)CC1", "note": "[Example I-153, 1-(4-(6-chloro-8-fluoro-7-(2-fluoro-6-hydroxyphenyl)-2-(2-(pyridin-2-yl)ethylamino)quinazolin-4-yl)piperazin-1-yl) prop-2-en-1-one]", "values": [
      {"measurement": "Binding %", "setting": "compounds of structure (I)", "result": "+++ (+++ indicates binding activity greater than 90%)"}
    ]},
    {"compound": "C=CC(=O)N1C[C@@H](C)N(c2ncnc3c(F)c(-c4c(C)ccc5cn[nH]c45)c(Cl)cc23)[C@@H](C)C1", "note": "[III-42, 1-((3S,5R)-4-(6-chloro-8-fluoro-7-(6-methyl-1H-indazol-7-yl)quinazolin-4-yl)-3,5-dimethyl-piperazin-1-yl)prop-2-en-1-one]", "values": [
      {"measurement": "Binding %", "setting": "compounds of structure (III)", "result": "++ (++ indicates activity from 50% to 90%)"}
    ]},
    {"compound": "C=CC(=O)N1CCN(c2ncnc3c(F)c(-c4c(F)cccc4OC)c(Cl)cc23)[C@H](C)C1", "note": "[III-13, 1-((3R)-4-(6-chloro-8-fluoro-7-(2-fluoro-6-methoxy-phenyl)quinazolin-4-yl)-3-methyl-piperazin-1-yl)prop-2-en-1-one]", "values": [
      {"measurement": "Binding %", "setting": "compounds of structure (III)", "result": "+ (+ indicates binding activity up to 50%)"}
    ]},
    {"compound": "C=CC(=O)N1CCN(c2nc(OCCN3CCOCC3)nc3c(F)c(-c4cc(O)cc5ccccc45)c(Cl)cc23)CC1", "note": "[Example I-14, 1-(4-(6-chloro-8-fluoro-7-(3-hydroxy-naphthalen-1-yl)-2-(2-morpholino-ethoxy)quinazolin-4-yl)piperazin-1-yl)prop-2-en-1-one]", "values": [
      {"measurement": "Binding %", "setting": "compounds of structure (I)", "result": "+++ (+++ indicates binding activity greater than 90%)"}
    ]},
    {"compound": "C=CC(=O)N1CCN(c2nc(OCCC3CCN(C(C)C)CC3)nc3c(F)c(-c4c(O)cccc4F)c(Cl)cc23)CC1", "note": "[Example I-180, 1-(4-(6-chloro-8-fluoro-7-(2-fluoro-6-hydroxyphenyl)-2-(2-(1-isopropyl-piperidin-4-yl)ethoxy)quinazolin-4-yl)piperazin-1-yl) prop-2-en-1-one]", "values": [
      {"measurement": "Binding %", "setting": "compounds of structure (I)", "result": "+++ (+++ indicates binding activity greater than 90%)"}
    ]},
    {"compound": "C=CC(=O)N1CCN(c2nc(NCCN(CC)CC)nc3c(F)c(-c4c(O)cccc4F)c(Cl)cc23)CC1", "note": "[Example I-151, l-(4-(6-chloro-2-(2-(diethyl-amino)ethylamino)-8-fluoro-7-(2-fluoro-6-hydroxyphenyl)quinazolin-4-yl)piperazin-1-yl) prop-2-en-1-one]", "values": [
      {"measurement": "Binding %", "setting": "compounds of structure (I)", "result": "+++ (+++ indicates binding activity greater than 90%)"}
    ]},
    {"compound": "C=CC(=O)N1CCN(c2nc(OCCN3CCOCC3)nc3c(F)c(-c4ccccc4C(C)C)c(Cl)cc23)CC1", "note": "[Example I-37, 1-(4-(6-chloro-8-fluoro-7-(2-isopropylphenyl)-2-(2-morpholino-ethoxy)quinazolin-4-yl)piperazin-1-yl)prop-2-en-1-one]", "values": [
      {"measurement": "Binding %", "setting": "compounds of structure (I)", "result": "+++ (+++ indicates binding activity greater than 90%)"}
    ]},
    {"compound": "C=CC(=O)N1CCN(c2nc(N3CC(N4CCN(C)CC4)C3)nc3c(F)c(-c4c(O)cccc4F)c(Cl)cc23)CC1", "note": "[Example I-41, 1-(4-(6-chloro-8-fluoro-7-(2-fluoro-6-hydroxyphenyl)-2-(3-(4-methyl-piperazin-1-yl)azetidin-1-yl)quinazolin-4-yl)piperazin-1-yl)prop-2-en-1-one]", "values": [
      {"measurement": "Binding %", "setting": "compounds of structure (I)", "result": "+++ (+++ indicates binding activity greater than 90%)"}
    ]},
    {"compound": "C=CC(=O)N1CCN(c2nc(OCCN3CCOCC3)nc3c(F)c(-c4cc(O)cc5ccccc45)c(Cl)cc23)CC1", "note": "(atropisomer, axis not shown) [Example I-51, (S)-1-(4-(6-chloro-8-fluoro-7-(3-hydroxy-naphthalen-1-yl)-2-(2-morpholino-ethoxy)quinazolin-4-yl)piperazin-1-yl)prop-2-en-1-one]", "values": [
      {"measurement": "Binding %", "setting": "compounds of structure (I)", "result": "+++ (+++ indicates binding activity greater than 90%)"}
    ]},
    {"compound": "C=CC(=O)N1CCN(c2ncnc3c(F)c(-c4c(C)ccc5[nH]ncc45)c(Cl)cc23)[C@@H](C)C1", "note": "[III-25, 1-((3S)-4-(6-chloro-8-fluoro-7-(5-methyl-1H-indazol-4-yl)quinazolin-4-yl)-3-methyl-piperazin-1-yl)prop-2-en-1-one]", "values": [
      {"measurement": "Binding %", "setting": "compounds of structure (III)", "result": "+++ (+++ indicates binding activity greater than 90%)"}
    ]},
    {"compound": "C=CC(=O)N1C[C@@H](C)N(c2ncnc3c(F)c(-c4c(C)ccc5[nH]ncc45)c(Cl)cc23)[C@@H](C)C1", "note": "[III-40, 1-((3S,5R)-4-(6-chloro-8-fluoro-7-(5-methyl-1H-indazol-4-yl)quinazolin-4-yl)-3,5-dimethyl-piperazin-1-yl)prop-2-en-1-one]", "values": [
      {"measurement": "Binding %", "setting": "compounds of structure (III)", "result": "++ (++ indicates activity from 50% to 90%)"}
    ]},
    {"compound": "C=CC(=O)N1CCN(c2nc(OC3CCC(O)CC3)nc3c(F)c(-c4c(O)cccc4F)c(Cl)cc23)CC1", "note": "(stereo not drawn) [Example I-63, 1-(4-(6-chloro-8-fluoro-7-(2-fluoro-6-hydroxyphenyl)-2-(4-hydroxy-cyclohexyloxy)quinazolin-4-yl)piperazin-1-yl)prop-2-en-1-one]", "values": [
      {"measurement": "Binding %", "setting": "compounds of structure (I)", "result": "+++ (+++ indicates binding activity greater than 90%)"}
    ]},
    {"compound": "C=CC(=O)N1CCN(c2nc(OCCN3CCC(F)(F)C3)nc3c(F)c(-c4c(O)cccc4F)c(Cl)cc23)CC1", "note": "[Example I-30, 1-(4-(6-chloro-2-(2-(3,3-difluoro-pyrrolidin-1-yl)ethoxy)-8-fluoro-7-(2-fluoro-6-hydroxyphenyl)quinazolin-4-yl)piperazin-1-yl) prop-2-en-1-one]", "values": [
      {"measurement": "Binding %", "setting": "compounds of structure (I)", "result": "+++ (+++ indicates binding activity greater than 90%)"}
    ]},
    {"compound": "C=CC(=O)N1CCN(c2nc(OCCN3CCOCC3)nc3c(F)c(-c4c(C)ccc5[nH]ncc45)c(Cl)cc23)CC1", "note": "(atropisomer, axis not shown) [Example I-32, (S)-1-(4-(6-chloro-8-fluoro-7-(5-methyl-1H-indazol-4-yl)-2-(2-morpholino-ethoxy)quinazolin-4-yl)piperazin-1-yl)prop-2-en-1-one]", "values": [
      {"measurement": "Binding %", "setting": "compounds of structure (I)", "result": "+ (+ indicates binding activity up to 50%)"}
    ]},
    {"compound": "C=CC(=O)N1CCN(c2nc(NC3CCN(C4CC4)CC3)nc3c(F)c(-c4c(C)cccc4O)c(Cl)cc23)CC1", "note": "[Example I-80, 1-(4-(6-chloro-2-(1-cyclopropyl-piperidin-4-ylamino)-8-fluoro-7-(2-hydroxy-6-methylphenyl)quinazolin-4-yl)piperazin-1-yl) prop-2-en-1-one]", "values": [
      {"measurement": "Binding %", "setting": "compounds of structure (I)", "result": "+++ (+++ indicates binding activity greater than 90%)"}
    ]},
    {"compound": "C=CC(=O)N1CCN(c2nc(CNc3ccccn3)nc3c(F)c(-c4c(O)cccc4F)c(Cl)cc23)CC1", "note": "[Example I-199, 1-(4-(6-chloro-8-fluoro-7-(2-fluoro-6-hydroxyphenyl)-2-((pyridin-2-ylamino)methyl)quinazolin-4-yl)piperazin-1-yl) prop-2-en-1-one]", "values": [
      {"measurement": "Binding %", "setting": "compounds of structure (I)", "result": "+++ (+++ indicates binding activity greater than 90%)"}
    ]},
    {"compound": "C=CC(=O)N1CCN(c2nc(OCCN3CCOCC3)nc3c(F)c(-c4c(C)ccc5[nH]ncc45)c(Cl)cc23)CC1", "note": "(atropisomer, axis not shown) [Example I-31, (R)-1-(4-(6-chloro-8-fluoro-7-(5-methyl-1H-indazol-4-yl)-2-(2-morpholino-ethoxy)quinazolin-4-yl)piperazin-1-yl)prop-2-en-1-one]", "values": [
      {"measurement": "Binding %", "setting": "compounds of structure (I)", "result": "+++ (+++ indicates binding activity greater than 90%)"}
    ]},
    {"compound": "C=CC(=O)N1CCN(c2nc(OCCN3CCN(C(C)C)CC3)nc3c(F)c(-c4c(O)cccc4F)c(Cl)cc23)CC1", "note": "[Example I-42, 1-(4-(6-chloro-8-fluoro-7-(2-fluoro-6-hydroxyphenyl)-2-(2-(4-isopropyl-piperazin-1-yl)ethoxy)quinazolin-4-yl)piperazin-1-yl)prop-2-en-1-one]", "values": [
      {"measurement": "Binding %", "setting": "compounds of structure (I)", "result": "+++ (+++ indicates binding activity greater than 90%)"}
    ]},
    {"compound": "C=CC(=O)N1CCN(c2nc(OCCc3ccccn3)nc3c(F)c(-c4cc(OC)cc5ccccc45)c(Cl)cc23)CC1", "note": "[Example I-54, 1-(4-(6-chloro-8-fluoro-7-(3-methoxy-naphthalen-1-yl)-2-(2-(pyridin-2-yl)ethoxy)quinazolin-4-yl)piperazin-1-yl)prop-2-en-1-one]", "values": [
      {"measurement": "Binding %", "setting": "compounds of structure (I)", "result": "+ (+ indicates binding activity up to 50%)"}
    ]},
    {"compound": "C=CC(=O)N1CCN(c2nc(NCC3CCN(C4CC4)CC3)nc3c(F)c(-c4c(O)cccc4F)c(Cl)cc23)CC1", "note": "[Example I-150, 1-(4-(6-chloro-2-((1-cyclopropyl-piperidin-4-yl)methylamino)-8-fluoro-7-(2-fluoro-6-hydroxyphenyl)quinazolin-4-yl)piperazin-1-yl) prop-2-en-1-one]", "values": [
      {"measurement": "Binding %", "setting": "compounds of structure (I)", "result": "+++ (+++ indicates binding activity greater than 90%)"}
    ]},
    {"compound": "C=CC(=O)N1CCN(c2ncnc3c(F)c(-c4c(O)ccc(F)c4F)c(Cl)cc23)CC1", "note": "[II-3, 1-(4-(6-chloro-7-(2,3-difluoro-6-hydroxyphenyl)-8-fluoroquinazolin-4-yl)piperazin-1-yl)prop-2-en-1-one]", "values": [
      {"measurement": "Binding %", "setting": "compounds of structure (II)", "result": "+++ (+++ indicates binding activity of 75% or greater)"}
    ]},
    {"compound": "C=CC(=O)N1CCN(c2ncnc3c(F)c(-c4c(F)cccc4OCc4cnc([N+](=O)[O-])n4C)c(Cl)cc23)CC1", "note": "[II-10, 1-(4-(6-chloro-8-fluoro-7-(2-fluoro-6-((1-methyl-2-nitro-1H-imidazol-5-yl)methoxy)phenyl)quinazolin-4-yl)piperazin-1-yl)prop-2-en-1-one]", "values": [
      {"measurement": "Binding %", "setting": "compounds of structure (II)", "result": "+++ (+++ indicates binding activity of 75% or greater)"}
    ]}
  ]
}
